{"source": "ChEMBL document CHEMBL3621142", "about": "“Discovery and Evaluation of Clinical Candidate AZD3759, a Potent, Oral Active, Central Nervous System-Penetrant, Epidermal Growth Factor Receptor Tyrosine Kinase Inhibitor” (J Med Chem, 2015)", "key": {"[1]": {"assay": "Fraction unbound in Han Wistar rat blood at 5 uM by equilibrium dialysis method", "assay_type": "ADME, tissue-based", "details": "Han Wistar"}, "[2]": {"assay": "Fraction unbound in Han Wistar rat brain at 5 uM by equilibrium dialysis method", "assay_type": "ADME, tissue-based", "details": "Han Wistar, brain"}, "[3]": {"assay": "Elimination half life in Han Wistar rat at 2 mg/kg, po", "assay_type": "ADME, organism-based", "details": "in vivo, read-out: beta t1/2 (converted)"}, "[4]": {"assay": "Oral bioavailability in Han Wistar rat at 2 mg/kg", "assay_type": "ADME, organism-based", "details": "Han Wistar, in vivo"}, "[5]": {"assay": "AUC (0 to 7 hrs) in Han Wistar rat brain at 2 mg/kg, po by LC-MS/MS analysis", "assay_type": "ADME, organism-based", "parameters": "dose 2 mg/kg, time < 7 hr, route oral", "details": "Han Wistar, brain"}, "[6]": {"assay": "AUC (0 to 7 hrs) in Han Wistar rat CSF at 2 mg/kg, po by LC-MS/MS analysis", "assay_type": "ADME, organism-based, Cerebrospinal fluid", "parameters": "time < 7 hr, dose 2 mg/kg, route oral", "details": "Han Wistar, CSF"}, "[7]": {"assay": "AUC (0 to 7 hrs) in Han Wistar rat blood at 2 mg/kg, po by LC-MS/MS analysis", "assay_type": "ADME, organism-based", "parameters": "dose 2 mg/kg, time < 7 hr, route oral", "details": "Han Wistar, blood"}, "[8]": {"assay": "Ratio of unbound AUC (0 to 7 hrs) in brain to blood of Han Wistar rat at 2 mg/kg, po by LC-MS/MS analysis", "assay_type": "ADME, organism-based", "details": "Han Wistar, brain and blood, read-out: K(p,uu,brain)"}, "[9]": {"assay": "Ratio of unbound AUC (0 to 7 hrs) in CSF to blood of Han Wistar rat at 2 mg/kg, po by LC-MS/MS analysis", "assay_type": "ADME, organism-based", "details": "Han Wistar, CSF and blood"}, "[10]": {"assay": "Elimination half life in Han Wistar rat at 1 mg/kg, iv", "assay_type": "ADME, organism-based", "details": "Han Wistar, in vivo, read-out: beta t1/2 (converted)"}, "[11]": {"assay": "Clearance in Han Wistar rat at 1 mg/kg, iv", "assay_type": "ADME, organism-based", "details": "in vivo"}, "[12]": {"assay": "Volume of distribution at steady state in Han Wistar rat at 1 mg/kg, iv", "assay_type": "ADME, organism-based", "details": "Han Wistar, in vivo, read-out: Vdss"}, "[13]": {"assay": "AUC(0 to 24 hrs) in Han Wistar rat at 2 mg/kg, po", "assay_type": "ADME, organism-based", "parameters": "dose 2 mg/kg, time < 24 hr, route oral", "details": "Han Wistar, in vivo"}, "Hepatocyte": {"test_system": "Hepatocyte", "assay": "Intrinsic clearance in human hepatocytes", "assay_type": "ADME, cell-based"}, "[14]": {"assay": "Cmax in Han Wistar rat at 2 mg/kg, po at 1 hr", "assay_type": "ADME, organism-based", "parameters": "dose 2 mg/kg, route oral", "details": "in vivo"}, "[15]": {"assay": "Antiproliferative against human PC9 cells expressing EGFR exon19 deletion mutant after 72 hrs by MTS assay", "assay_type": "functional, cell-based", "details": "PC-9, 72 h"}, "[16]": {"assay": "Antiproliferative against human H3255 cells expressing EGFR L858R mutant after 72 hrs by MTS assay", "assay_type": "functional, cell-based", "details": "NCI-H3255, 72 h"}, "NCI-H838": {"test_system": "NCI-H838", "assay": "Antiproliferative against human NCI-H838 cells expressing EGFR wild-type after 72 hrs by MTS assay", "assay_type": "functional, cell-based", "details": "NCI-H838, 72 h"}, "[17]": {"target": "Ephrin type-B receptor 4 (Homo sapiens) (UniProt P54760)", "assay": "Inhibition of recombinant EpHB4 (unknown origin) at 1 uM after 40 mins by scintillation counting analysis in presence of [gamma33P]-ATP"}, "[18]": {"target": "Vascular endothelial growth factor receptor 1 (Homo sapiens) (UniProt P17948)", "sequence (P17948 whole entry)": "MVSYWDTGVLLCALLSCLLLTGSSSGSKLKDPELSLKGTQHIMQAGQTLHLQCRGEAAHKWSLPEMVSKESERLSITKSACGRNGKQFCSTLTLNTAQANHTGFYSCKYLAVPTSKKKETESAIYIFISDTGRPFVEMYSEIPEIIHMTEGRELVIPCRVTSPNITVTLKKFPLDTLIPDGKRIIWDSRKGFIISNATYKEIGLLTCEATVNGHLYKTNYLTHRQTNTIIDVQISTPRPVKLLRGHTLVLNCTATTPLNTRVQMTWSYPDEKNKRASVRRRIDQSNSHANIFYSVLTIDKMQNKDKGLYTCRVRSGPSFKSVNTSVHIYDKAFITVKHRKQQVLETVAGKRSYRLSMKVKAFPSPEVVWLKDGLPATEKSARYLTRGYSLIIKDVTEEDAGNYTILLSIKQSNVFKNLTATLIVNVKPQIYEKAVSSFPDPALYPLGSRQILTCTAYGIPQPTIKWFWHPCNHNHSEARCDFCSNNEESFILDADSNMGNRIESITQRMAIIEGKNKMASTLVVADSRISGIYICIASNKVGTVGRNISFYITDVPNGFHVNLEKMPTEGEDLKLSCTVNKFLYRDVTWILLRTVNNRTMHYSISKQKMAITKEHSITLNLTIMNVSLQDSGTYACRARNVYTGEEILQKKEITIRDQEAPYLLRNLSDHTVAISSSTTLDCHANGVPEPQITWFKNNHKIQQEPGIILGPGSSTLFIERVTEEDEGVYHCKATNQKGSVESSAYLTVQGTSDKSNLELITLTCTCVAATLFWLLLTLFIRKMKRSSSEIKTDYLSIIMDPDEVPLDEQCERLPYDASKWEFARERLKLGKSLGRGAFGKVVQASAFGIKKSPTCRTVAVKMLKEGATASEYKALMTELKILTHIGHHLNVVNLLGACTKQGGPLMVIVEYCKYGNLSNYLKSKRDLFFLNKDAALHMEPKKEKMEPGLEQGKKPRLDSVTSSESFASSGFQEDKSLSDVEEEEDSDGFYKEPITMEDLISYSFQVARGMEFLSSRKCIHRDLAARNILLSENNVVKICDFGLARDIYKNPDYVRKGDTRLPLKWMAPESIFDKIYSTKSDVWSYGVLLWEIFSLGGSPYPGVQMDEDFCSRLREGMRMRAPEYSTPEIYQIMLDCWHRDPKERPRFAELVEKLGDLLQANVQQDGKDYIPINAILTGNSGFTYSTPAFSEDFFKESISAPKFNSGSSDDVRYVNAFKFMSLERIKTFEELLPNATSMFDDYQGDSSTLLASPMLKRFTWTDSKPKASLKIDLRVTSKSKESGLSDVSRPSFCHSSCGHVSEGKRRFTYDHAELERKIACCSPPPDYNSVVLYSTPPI", "assay": "Inhibition of recombinant Flt (unknown origin) at 1 uM after 40 mins by scintillation counting analysis in presence of [gamma33P]-ATP"}, "[19]": {"target": "Tyrosine-protein kinase Fyn (Homo sapiens) (UniProt P06241)", "sequence (P06241 2-537 limits assumed)": "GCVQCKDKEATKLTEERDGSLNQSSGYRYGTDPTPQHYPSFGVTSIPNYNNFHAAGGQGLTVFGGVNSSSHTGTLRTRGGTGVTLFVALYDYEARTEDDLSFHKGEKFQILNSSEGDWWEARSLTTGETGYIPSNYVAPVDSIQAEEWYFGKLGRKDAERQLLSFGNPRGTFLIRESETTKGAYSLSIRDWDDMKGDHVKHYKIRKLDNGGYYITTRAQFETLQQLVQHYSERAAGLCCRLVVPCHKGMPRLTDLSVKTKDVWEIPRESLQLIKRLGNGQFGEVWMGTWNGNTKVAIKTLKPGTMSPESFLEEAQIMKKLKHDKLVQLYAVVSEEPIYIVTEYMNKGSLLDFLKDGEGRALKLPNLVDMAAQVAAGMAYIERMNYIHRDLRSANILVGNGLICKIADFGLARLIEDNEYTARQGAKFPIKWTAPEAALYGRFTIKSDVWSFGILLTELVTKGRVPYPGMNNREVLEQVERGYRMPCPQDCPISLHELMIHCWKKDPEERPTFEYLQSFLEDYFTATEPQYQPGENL", "assay": "Inhibition of recombinant Fyn (unknown origin) at 1 uM after 40 mins by scintillation counting analysis in presence of [gamma33P]-ATP"}, "[20]": {"target": "T1, Vascular endothelial growth factor receptor 2 (Homo sapiens, UniProt P35968)", "T1 sequence (P35968 whole entry)": "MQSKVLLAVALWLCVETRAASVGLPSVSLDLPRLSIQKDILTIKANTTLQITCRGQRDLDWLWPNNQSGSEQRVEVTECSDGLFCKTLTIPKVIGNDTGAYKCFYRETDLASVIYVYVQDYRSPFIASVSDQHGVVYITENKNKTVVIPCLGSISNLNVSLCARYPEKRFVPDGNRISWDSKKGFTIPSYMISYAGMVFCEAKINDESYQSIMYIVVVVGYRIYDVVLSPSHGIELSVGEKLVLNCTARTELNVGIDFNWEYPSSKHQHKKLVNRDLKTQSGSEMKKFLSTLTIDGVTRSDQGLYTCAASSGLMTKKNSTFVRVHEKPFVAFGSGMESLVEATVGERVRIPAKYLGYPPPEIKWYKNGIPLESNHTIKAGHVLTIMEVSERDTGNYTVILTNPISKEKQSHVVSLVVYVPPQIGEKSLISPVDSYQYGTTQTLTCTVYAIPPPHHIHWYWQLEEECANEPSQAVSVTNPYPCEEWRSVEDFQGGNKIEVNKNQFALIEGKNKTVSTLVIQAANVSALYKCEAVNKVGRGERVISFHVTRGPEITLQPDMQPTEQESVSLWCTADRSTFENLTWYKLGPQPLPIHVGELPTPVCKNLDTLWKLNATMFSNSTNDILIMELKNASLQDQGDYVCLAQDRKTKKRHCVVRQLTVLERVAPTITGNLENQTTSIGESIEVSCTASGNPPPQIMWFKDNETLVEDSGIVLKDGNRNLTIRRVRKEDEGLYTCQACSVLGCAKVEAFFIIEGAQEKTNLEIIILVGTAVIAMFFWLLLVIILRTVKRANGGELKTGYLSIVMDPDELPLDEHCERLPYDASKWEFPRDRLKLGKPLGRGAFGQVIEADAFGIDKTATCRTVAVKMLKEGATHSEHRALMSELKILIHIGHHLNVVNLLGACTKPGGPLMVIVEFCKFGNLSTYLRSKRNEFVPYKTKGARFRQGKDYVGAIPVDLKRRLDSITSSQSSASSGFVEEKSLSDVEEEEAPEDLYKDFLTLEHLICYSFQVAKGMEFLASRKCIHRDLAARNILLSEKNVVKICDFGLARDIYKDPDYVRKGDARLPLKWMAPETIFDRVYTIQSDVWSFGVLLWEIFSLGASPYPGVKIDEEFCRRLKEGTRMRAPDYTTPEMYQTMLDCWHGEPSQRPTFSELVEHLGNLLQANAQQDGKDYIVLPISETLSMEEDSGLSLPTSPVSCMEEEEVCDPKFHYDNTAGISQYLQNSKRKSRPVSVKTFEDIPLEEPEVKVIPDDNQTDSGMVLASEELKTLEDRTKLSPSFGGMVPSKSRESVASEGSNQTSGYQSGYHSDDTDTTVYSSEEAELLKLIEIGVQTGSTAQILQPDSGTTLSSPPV", "assay": "Inhibition of recombinant KDR (unknown origin) at 1 uM after 40 mins by scintillation counting analysis in presence of [gamma33P]-ATP"}, "[21]": {"target": "Tyrosine-protein kinase Lck (Homo sapiens) (UniProt P06239)", "sequence (P06239 2-509 limits assumed)": "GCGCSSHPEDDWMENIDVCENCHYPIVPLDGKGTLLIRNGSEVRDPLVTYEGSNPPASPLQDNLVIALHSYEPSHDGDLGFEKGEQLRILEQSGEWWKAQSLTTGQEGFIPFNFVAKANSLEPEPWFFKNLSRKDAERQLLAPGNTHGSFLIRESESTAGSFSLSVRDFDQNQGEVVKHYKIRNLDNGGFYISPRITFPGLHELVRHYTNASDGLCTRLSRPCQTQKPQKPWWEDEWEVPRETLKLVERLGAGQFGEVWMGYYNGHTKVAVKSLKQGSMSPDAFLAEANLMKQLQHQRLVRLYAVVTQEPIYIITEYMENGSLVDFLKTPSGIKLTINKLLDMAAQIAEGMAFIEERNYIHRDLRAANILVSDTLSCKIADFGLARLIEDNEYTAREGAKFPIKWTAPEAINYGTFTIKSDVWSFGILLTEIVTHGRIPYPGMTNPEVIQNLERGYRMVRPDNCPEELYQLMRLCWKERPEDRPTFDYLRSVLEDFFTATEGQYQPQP", "assay": "Inhibition of recombinant Lck (unknown origin) at 1 uM after 40 mins by scintillation counting analysis in presence of [gamma33P]-ATP"}, "[22]": {"target": "Tyrosine-protein kinase Lyn (Homo sapiens) (UniProt P07948)", "sequence (P07948 2-512 limits assumed)": "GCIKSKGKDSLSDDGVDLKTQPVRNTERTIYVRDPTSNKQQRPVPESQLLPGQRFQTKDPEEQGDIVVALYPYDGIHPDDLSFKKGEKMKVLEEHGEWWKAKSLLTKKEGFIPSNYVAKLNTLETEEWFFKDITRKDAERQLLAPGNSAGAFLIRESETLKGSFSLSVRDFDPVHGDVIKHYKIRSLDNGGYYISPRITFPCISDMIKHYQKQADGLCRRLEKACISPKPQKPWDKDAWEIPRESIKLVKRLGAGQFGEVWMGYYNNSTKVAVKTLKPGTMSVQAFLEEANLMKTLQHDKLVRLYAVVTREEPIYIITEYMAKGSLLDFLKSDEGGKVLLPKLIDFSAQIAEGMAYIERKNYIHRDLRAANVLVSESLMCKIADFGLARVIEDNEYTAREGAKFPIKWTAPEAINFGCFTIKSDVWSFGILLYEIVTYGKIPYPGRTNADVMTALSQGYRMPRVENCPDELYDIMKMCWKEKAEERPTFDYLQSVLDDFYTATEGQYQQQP", "assay": "Inhibition of recombinant Lyn (unknown origin) at 1 uM after 40 mins by scintillation counting analysis in presence of [gamma33P]-ATP"}, "[23]": {"target": "T2, Proto-oncogene tyrosine-protein kinase Src (Homo sapiens, UniProt P12931)", "T2 sequence (P12931 2-536 limits assumed)": "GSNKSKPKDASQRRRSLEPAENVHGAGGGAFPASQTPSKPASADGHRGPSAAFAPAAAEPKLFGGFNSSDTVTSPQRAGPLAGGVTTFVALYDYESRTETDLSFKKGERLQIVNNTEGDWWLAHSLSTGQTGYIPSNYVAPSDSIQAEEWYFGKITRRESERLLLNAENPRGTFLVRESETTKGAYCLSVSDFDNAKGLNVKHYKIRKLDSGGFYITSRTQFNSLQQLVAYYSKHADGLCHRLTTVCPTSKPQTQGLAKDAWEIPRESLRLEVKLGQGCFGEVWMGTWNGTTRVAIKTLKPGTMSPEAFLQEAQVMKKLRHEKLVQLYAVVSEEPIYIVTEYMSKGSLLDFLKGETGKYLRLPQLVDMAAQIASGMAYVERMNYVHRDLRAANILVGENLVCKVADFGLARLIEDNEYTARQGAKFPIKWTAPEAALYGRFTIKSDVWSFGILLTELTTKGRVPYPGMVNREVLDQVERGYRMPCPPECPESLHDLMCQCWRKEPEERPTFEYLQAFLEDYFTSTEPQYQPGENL", "assay": "Inhibition of recombinant Src (unknown origin) at 1 uM after 40 mins by scintillation counting analysis in presence of [gamma33P]-ATP"}, "[24]": {"target": "Tyrosine-protein kinase Yes (Homo sapiens) (UniProt P07947)", "assay": "Inhibition of recombinant Yes (unknown origin) at 1 uM after 40 mins by scintillation counting analysis in presence of [gamma33P]-ATP"}, "[25]": {"target": "T1, Vascular endothelial growth factor receptor 2", "assay": "Inhibition of recombinant KDR (unknown origin) after 40 mins by scintillation counting analysis in presence of [gamma33P]-ATP"}, "[26]": {"target": "T2, Proto-oncogene tyrosine-protein kinase Src", "assay": "Inhibition of recombinant Src (unknown origin) after 40 mins by scintillation counting analysis in presence of [gamma33P]-ATP"}}, "data": [{"smiles": "COc1cc2ncnc(Nc3cccc(Cl)c3F)c2cc1OC(=O)N1CCN(C)C[C@H]1C", "note": "[AZD-3759]", "values": [{"measurement": "fraction unbound at 5 µM", "setting": "[1]", "result": 0.047}, {"measurement": "fraction unbound at 5 µM", "setting": "[2]", "result": 0.02}, {"measurement": "half-life", "setting": "[3]", "result": 4.3, "unit": "h"}, {"measurement": "bioavailability", "setting": "[4]", "result": 91, "unit": "%"}, {"measurement": "AUC(0-t) at 7 h", "setting": "[5]", "result": 3.69, "unit": "µM·h"}, {"measurement": "AUC(0-t) at 7 h", "setting": "[6]", "result": 0.076, "unit": "µM·h"}, {"measurement": "AUC(0-t) at 7 h", "setting": "[7]", "result": 1.23, "unit": "µM·h"}, {"measurement": "Kp uu", "setting": "[8]", "result": 1.3}, {"measurement": "Kp uu", "setting": "[9]", "result": 1.3}, {"measurement": "half-life", "setting": "[10]", "result": 4.1, "unit": "h"}, {"measurement": "clearance", "setting": "[11]", "result": 17, "unit": "mL/min/kg"}, {"measurement": "Vd", "setting": "[12]", "result": 5.2, "unit": "L/kg"}, {"measurement": "AUC(0-t) at 24 h", "setting": "[13]", "result": 3.8, "unit": "µM·h"}, {"measurement": "CLH", "setting": "Hepatocyte", "result": 11.4, "unit": "µL/min"}, {"measurement": "Cmax", "setting": "[14]", "result": 580, "unit": "nM"}, {"measurement": "IC50", "setting": "[15]", "result": 7.7, "unit": "nM"}, {"measurement": "IC50", "setting": "[16]", "result": 7, "unit": "nM"}, {"measurement": "IC50", "setting": "NCI-H838", "result": 21600, "unit": "nM"}, {"measurement": "inhibition", "setting": "[17]", "result": 83, "unit": "%"}, {"measurement": "inhibition", "setting": "[18]", "result": 57, "unit": "%"}, {"measurement": "inhibition", "setting": "[19]", "result": 58, "unit": "%"}, {"measurement": "inhibition", "setting": "[20]", "result": 62, "unit": "%"}, {"measurement": "inhibition", "setting": "[21]", "result": 61, "unit": "%"}, {"measurement": "inhibition", "setting": "[22]", "result": 74, "unit": "%"}, {"measurement": "inhibition", "setting": "[23]", "result": 69, "unit": "%"}, {"measurement": "inhibition", "setting": "[24]", "result": 87, "unit": "%"}, {"measurement": "IC50", "setting": "[25]", "result": 156, "unit": "nM"}, {"measurement": "IC50", "setting": "[26]", "result": 622, "unit": "nM"}]}]}
